Measured values as given in PMC7174758, “Synthesis and Biological Evaluation of HDAC Inhibitors With a Novel Zinc Binding Group” (Frontiers in Chemistry, 2020).

Tests used:
acetyl-histone H3 = assay: Western blot, acetylation of histone H3 in Hela cells; assay type: cell-based, human; conditions: 5 μM, reference drug
Description: (§1) Afterwards, the Hela cells were collected using centrifugation, and were then lysed by the lysate, which were carried out further centrifugation at 12,000 rpm for 30 min. The protein of supernatant obtained by centrifugation was quantified using the BCA kit (Beijing Solarbio Science & Technology Co., Ltd.), and the protein extracts were mixed with the SDS-PAGE protein loading buffer (Beijing Solarbio Science & Technology Co., Ltd.), which were subject to 100°C water bath for 10 min to sufficiently denaturate. The gel was gelatinized using the SDS Gel Kit (Beijing Solarbio Science & Technology Co., Ltd.) and protein extracts were separated by protein SDS-polyacrylamide gel electrophoresis and then transferred to Immobilon-NC Membrane (Beijing Solarbio Science & Technology Co., Ltd.). After the blocking with 5% non-fat dried milk in TBS for 90 min at room temperature, the membranes were incubated overnight with specific primary antibodies (AFFINITY BIOSCIENCE) at 4°C, which were further incubated with secondary antibodies for 2 h after washing three times with TBST. The chemiluminescence analysis system was applied to label the target protein with a specific primary antibody and the target protein was detected using a specific antibody.

acetyl-α-tubulin = assay: Western blot, acetylation of α-tubulin in Hela cells; assay type: cell-based, human; conditions: 5 μM, reference drug
Description: as §1

Hela = assay: MTT anti-proliferative assay, Hela; conditions: Homo sapiens, 48 h, read-out: IC50 Hela
Description: (§2) The antitumor bioactivities of the tittle compounds in vitro were firstly evaluated against four different human tumor cell lines [breast lung cancer (A549), cervical cancer (Hela), liver cancer (HepG2), breast cancer (MCF-7)] via MTT assay, and a normal cell line [human lung fibroblast (WI-38)] was applied to assess the safety of the synthesized compounds. […] In this study, the tested compounds were diluted to the required concentration with culture medium, and growth inhibitory effects against the cell lines of the tittle compounds were determined by MTT colorimetric assay. […] The microplate reader was adopted to record the absorbance at 490 nm for each well of the plates.

HepG2 = assay: MTT anti-proliferative assay, HepG2; conditions: Homo sapiens, HepG2, 48 h, read-out: IC50 HepG2
Description: as §2

WI-38 = assay: MTT cytotoxicity assay, normal cell line WI-38; conditions: Homo sapiens, WI-38, 48 h, read-out: IC50 WI-38
Description: as §2

MCF-7 = assay: MTT anti-proliferative assay, MCF-7; conditions: Homo sapiens, MCF7, 48 h, read-out: IC50 MCF-7
Description: as §2

A549 = assay: MTT anti-proliferative assay, A549; conditions: Homo sapiens, A549, 48 h, read-out: IC50 A549
Description: as §2

SMILES	acetylation level of histone H3 (acetyl-histone H3)	acetylation level of α-Tubulin (acetyl-α-tubulin)	melting point [°C]	IC50 (Hela) [µM]	IC50 (HepG2) [µM]	IC50 (WI-38) [µM]	IC50 (MCF-7) [µM]	IC50 (A549) [µM]
O=C(CCCCCCC(=O)Nc1ccccc1)NO [SAHA, suberoylanilide hydroxamic acid, reference compound]	up-regulated	increase	–	–	–	–	–	–
CC(O)CNC(=O)CCCCCNC(=O)c1ccc(F)cc1 (centres unmarked) [a1, 4-fluoro-N-(6-((2-hydroxypropyl)amino)-6-oxohexyl) benzamide]	–	–	99.3 to 100.8	–	–	–	–	–
CC(O)CNC(=O)CCCCCNC(=O)c1ccc(Cl)cc1 (centres unmarked) [a2, 4-chloro-N-(6-((2-hydroxypropyl)amino)-6-oxohexyl) benzamide]	–	–	93.9 to 95.7	–	–	–	–	–
CC(O)CNC(=O)CCCCCNC(=O)c1ccccc1Cl (centres unmarked) [a3, 2-chloro-N-(6-((2-hydroxypropyl)amino)-6-oxohexyl) benzamide]	–	–	110.2 to 113.6	–	–	–	–	–
CC(O)CNC(=O)CCCCCNC(=O)c1ccc(Br)cc1 (centres unmarked) [a4, 4-bromo-N-(6-((2-hydroxypropyl)amino)-6-oxohexyl) benzamide]	–	–	112.4 to 114.7	–	–	–	–	–
CC(O)CNC(=O)CCCCCNC(=O)c1ccc(I)cc1 (centres unmarked) [a5, N-(6-((2-hydroxypropyl)amino)-6-oxohexyl)-4-iodobenzamide]	–	–	148.7 to 150.2	35.8 ± 2.43	68.9 ± 1.95	158 ± 3.16	63.2 ± 4.32	45.6 ± 2.81
Cc1ccc(C(=O)NCCCCCC(=O)NCC(C)O)cc1 (centres unmarked) [a6, N-(6-((2-hydroxypropyl)amino)-6-oxohexyl)-4-methylbenzamide]	–	–	114.2 to 116.8	19.6 ± 3.92	74.9 ± 2.05	97.2 ± 6.36	44.8 ± 2.01	39.2 ± 3.88
CC(O)CNC(=O)CCCCCNC(=O)c1ccc([N+](=O)[O-])cc1 (centres unmarked) [a7, N-(6-((2-hydroxypropyl)amino)-6-oxohexyl)-4-nitrobenzamide]	–	–	124.3 to 126.1	25.8 ± 8.93	88.3 ± 8.64	211 ± 4.32	58.7 ± 3.86	43.8 ± 4.82
CC(O)CNC(=O)CCCCCNC(=O)c1ccc(C(F)(F)F)cc1 (centres unmarked) [a9, N-(6-((2-hydroxypropyl)amino)-6-oxohexyl)-4-(trifluoromethyl) benzamide]	–	–	106.3 to 108.1	–	–	–	–	–
CC(O)CNC(=O)CCCCCNC(=O)c1ccc(-c2ccccc2)cc1 (centres unmarked) [a10, N-(6-((2-hydroxypropyl)amino)-6-oxohexyl)-[1, 1’-biphenyl]-4-carboxamide]	–	–	140.3 to 142.6	38.4 ± 1.01	26.8 ± 3.22	126 ± 7.83	48.4 ± 2.21	19.8 ± 2.11
CC(O)CNC(=O)CCCCCNC(=O)c1ccc2ccccc2c1 (centres unmarked) [a11, N-(6-((2-hydroxypropyl)amino)-6-oxohexyl)-2-naphthamide]	–	–	111.6 to 113.6	21.8 ± 2.42	29.2 ± 3.22	109 ± 4.63	38.4 ± 2.12	26.6 ± 2.81
CC(O)CNC(=O)CCCCCNC(=O)c1ccc2c(c1)OCO2 (centres unmarked) [a12, N-(6-((2-hydroxypropyl)amino)-6-oxohexyl) benzo [d][1,3] dioxole-5-carboxamide]	–	–	123.6 to 125.3	35.6 ± 0.89	37.6 ± 2.89	147 ± 3.82	44.6 ± 4.62	28.4 ± 2.01
O=C(CCCCCNC(=O)c1ccccc1)NCCO [b1, N-(6-((2-hydroxyethyl)amino)-6-oxohexyl) benzamide]	–	–	111.2 to 114.5	90.4 ± 2.21	84.5 ± 1.33	194 ± 5.32	94.3 ± 15.3	33.1 ± 0.96
O=C(CCCCCNC(=O)c1ccc(F)cc1)NCCO [b2, 4-fluoro-N-(6-((2-hydroxyethyl)amino)-6-oxohexyl) benzamide]	–	–	131.2 to 132.9	–	–	–	–	–
O=C(CCCCCNC(=O)c1ccc(Cl)cc1)NCCO [b3, 4-chloro-N-(6-((2-hydroxyethyl)amino)-6-oxohexyl) benzamide]	–	–	112.4 to 115.9	–	–	–	–	–
O=C(CCCCCNC(=O)c1ccc(Br)cc1)NCCO [b4, 4-bromo-N-(6-((2-hydroxyethyl)amino)-6-oxohexyl) benzamide]	–	–	115.7 to 118.7	–	–	–	–	–
O=C(CCCCCNC(=O)c1ccc(I)cc1)NCCO [b5, N-(6-((2-hydroxyethyl)amino)-6-oxohexyl)-4-iodobenzamide]	–	–	150.4 to 150.9	61 ± 5.31	90.3 ± 8.18	130 ± 5.02	64.5 ± 11.1	48.3 ± 0.92
Cc1ccc(C(=O)NCCCCCC(=O)NCCO)cc1 [b6, N-(6-((2-hydroxyethyl)amino)-6-oxohexyl)-4-methylbenzamide]	–	–	–	59.7 ± 2.67	77.2 ± 4.43	144 ± 8.05	99.2 ± 1.9	26.9 ± 4.79
Cc1cc(C)cc(C(=O)NCCCCCC(=O)NCCO)c1 [b7, N-(6-((2-hydroxyethyl)amino)-6-oxohexyl)-3,5-dimethylbenzamide]	–	–	110.1 to 111.8	96.8 ± 2.09	88 ± 9.39	184 ± 7.16	83.6 ± 23.2	32.3 ± 3.13
O=C(CCCCCNC(=O)c1ccc(C(F)(F)F)cc1)NCCO [b9, N-(6-((2-hydroxyethyl)amino)-6-oxohexyl)-4-(trifluoromethyl) benzamide]	–	–	105 to 106.3	–	–	–	–	–
O=C(CCCCCNC(=O)c1ccc2c(c1)OCO2)NCCO [b10, N-(6-((2-hydroxyethyl)amino)-6-oxohexyl) benzo[d][1,3] dioxole-5-carboxamide]	–	–	94.5 to 96.7	38.1 ± 1.28	33.9 ± 2.71	193 ± 6.53	93.2 ± 3.53	28.2 ± 0.87
CN(C)c1ccc(C(=O)NCCCCCC(=O)NCCO)cc1 [b11, 4-(dimethylamino)-N-(6-((2-hydroxyethyl)amino)-6-oxohexyl) benzamide]	–	–	120.4 to 122.3	–	–	–	–	–
O=C(CCCCCNC(=O)c1ccc2ccccc2c1)NCCO [b12, N-(6-((2-hydroxyethyl)amino)-6-oxohexyl)-2-naphthamide]	–	–	115.1 to 117.8	76.4 ± 6.78	37.6 ± 6.14	161 ± 8.64	98.7 ± 7.67	33.4 ± 2.12
